Data reported in patent publication US12473304B2, “Heterocyclic PAD4 inhibitors” (BRISTOL-MYERS SQUIBB COMPANY, priority 2020, dated 2025).

Molecular target: human PAD4 (hPAD4) (Homo sapiens (Human), UniProt Q9UM07)
Assay: RFMS Human PAD4 Functional Assay 1
Type: biochemical
Settings: RFMS assay 1; 5 nM hPAD4, 250 μM BAEE substrate, 50 μM calcium, 37° C.
In short: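 Citrullination product read by RapidFire triple-quad MRM against a modified-citrulline internal standard, after TCA stop and 30 min phenyl glyoxal step at 37 °C. Reaction: 250 μM BAEE, 5 nM human PAD4, 90 min at 37 °C, pH 7.5 HEPES buffer with 50 μM calcium and 5 μM TPEN, following 30 min compound–enzyme preincubation (max 50 μM).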

Chain of human PAD4 (hPAD4) (Q9UM07 whole entry): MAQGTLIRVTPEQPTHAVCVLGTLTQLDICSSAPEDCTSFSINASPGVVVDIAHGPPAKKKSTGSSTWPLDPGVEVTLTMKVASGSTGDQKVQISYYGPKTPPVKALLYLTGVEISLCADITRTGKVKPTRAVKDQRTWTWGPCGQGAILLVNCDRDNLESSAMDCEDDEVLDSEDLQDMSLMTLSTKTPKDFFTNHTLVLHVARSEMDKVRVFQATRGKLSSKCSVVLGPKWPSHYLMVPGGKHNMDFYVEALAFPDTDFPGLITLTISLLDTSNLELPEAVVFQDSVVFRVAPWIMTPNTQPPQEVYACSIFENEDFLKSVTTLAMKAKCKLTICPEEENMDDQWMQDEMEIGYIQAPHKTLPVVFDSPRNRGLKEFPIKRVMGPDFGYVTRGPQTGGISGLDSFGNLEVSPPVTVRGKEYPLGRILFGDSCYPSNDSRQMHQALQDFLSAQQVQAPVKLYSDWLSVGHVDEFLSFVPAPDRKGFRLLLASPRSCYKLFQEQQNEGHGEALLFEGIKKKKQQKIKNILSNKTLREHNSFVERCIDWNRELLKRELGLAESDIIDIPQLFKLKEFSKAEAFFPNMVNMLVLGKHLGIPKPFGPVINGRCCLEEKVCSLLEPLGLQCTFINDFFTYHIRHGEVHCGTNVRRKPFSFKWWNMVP

SMILES	IC50
Cc1ccc2cc(-c3nn4cc(C(=O)N5C[C@H](N)C[C@@H](F)C5)cc(F)c4c3C)n(CC3CC3)c2n1 [Example 54, ((3R,5R)-3-Amino-5-fluoropiperidin-1-yl)(2-(1-(cyclopropylmethyl)-6-methyl-1H-pyrrolo[2,3-b]pyridin-2-yl)-4-fluoro-3-methylpyrazolo[1,5-a]pyridin-6-yl)methanone]	358 nM
Cc1c(-c2cc3ccc(-c4cccc(O)c4F)nc3n2CC2CC2)nn2cc(C(=O)N3C[C@H](N)C[C@@H](F)C3)cc(F)c12 [Example 55, ((3R,5R)-3-Amino-5-fluoropiperidin-1-yl)(2-(1-(cyclopropylmethyl)-6-(2-fluoro-3-hydroxyphenyl)-1H-pyrrolo[2,3-b]pyridin-2-yl)-4-fluoro-3-methylpyrazolo[1,5-a]pyridin-6-yl)methanone]	543 nM
Cc1c(-c2cc3ccc(-c4ccc(C(N)=O)c(F)c4)nc3n2CC2CC2)nn2cc(C(=O)N3C[C@H](N)C[C@@H](F)C3)cc(F)c12 [Example 56, 4-(2-(6-((3R,5R)-3-Amino-5-fluoropiperidine-1-carbonyl)-4-fluoro-3-methylpyrazolo[1,5-a]pyridin-2-yl)-1-(cyclopropylmethyl)-1H-pyrrolo[2,3-b]pyridin-6-yl)-2-fluorobenzamide]	468 nM
Cc1c(-c2cc3ccc(C4CC4)nc3n2CC2CC2)nn2cc(C(=O)N3C[C@H](N)C[C@@H](F)C3)cc(F)c12 [Example 57, ((3R,5R)-3-Amino-5-fluoropiperidin-1-yl)(2-(6-cyclopropyl-1-(cyclopropylmethyl)-1H-pyrrolo[2,3-b]pyridin-2-yl)-4-fluoro-3-methylpyrazolo[1,5-a]pyridin-6-yl)methanone]	781 nM
Cc1c(-c2cc3ccc(-c4ccc(Cl)c5c(NS(C)(=O)=O)nn(C)c45)cc3n2CC2CC2)nn2cc(C(=O)N3CC4CCC3[C@@H]4N)cc(F)c12 (stereo partly drawn) [Example 58, N-(7-(2-(6-((7R)-7-Amino-2-azabicyclo[2.2.1]heptane-2-carbonyl)-4-fluoro-3-methylpyrazolo[1,5-a]pyridin-2-yl)-1-(cyclopropylmethyl)-1H-indol-6-yl)-4-chloro-1-methyl-1H-indazol-3-yl)methanesulfonamide]	83 nM
Cc1c(-c2cc3ccc(-c4cccc(O)c4F)cc3n2CC2CC2)nn2cc(C(=O)N3CC4CCC3[C@@H]4N)cc(F)c12 (stereo partly drawn) [Example 59, ((7R)-7-Amino-2-azabicyclo[2.2.1]heptan-2-yl)(2-(1-(cyclopropylmethyl)-6-(2-fluoro-3-hydroxyphenyl)-1H-indol-2-yl)-4-fluoro-3-methylpyrazolo[1,5-a]pyridin-6-yl)methanone]	291 nM
Cc1c(-c2cc3ccc(-c4ccc(O)c(F)c4)cc3n2CC2CC2)nn2cc(C(=O)N3CC4CCC3[C@@H]4N)cc(F)c12 (stereo partly drawn) [Example 60, ((7R)-7-Amino-2-azabicyclo[2.2.1]heptan-2-yl)(2-(1-(cyclopropylmethyl)-6-(3-fluoro-4-hydroxyphenyl)-1H-indol-2-yl)-4-fluoro-3-methylpyrazolo[1,5-a]pyridin-6-yl)methanone]	83 nM
Cc1c(-c2cc3ccc(-c4ccn5c(C)nnc5c4)cc3n2CC2CC2)nn2cc(C(=O)N3CC4CCC3[C@@H]4N)cc(F)c12 (stereo partly drawn) [Example 62, ((7R)-7-Amino-2-azabicyclo[2.2.1]heptan-2-yl)(2-(1-(cyclopropylmethyl)-6-(3-methyl-[1,2,4]triazolo[4,3-a]pyridin-7-yl)-1H-indol-2-yl)-4-fluoro-3-methylpyrazolo[1,5-a]pyridin-6-yl)methanone]	28 nM
Cc1c(-c2cc3ccc(-c4ccc5c(c4)C(=O)NC5)nc3n2CC2CC2)nn2cc(C(=O)N3CC4CCC3[C@@H]4N)ccc12 (stereo partly drawn) [Example 65, 6-(2-(6-((7R)-7-Amino-2-azabicyclo[2.2.1]heptane-2-carbonyl)-3-methylpyrazolo[1,5-a]pyridin-2-yl)-1-(cyclopropylmethyl)-1H-pyrrolo[2,3-b]pyridin-6-yl)isoindolin-1-one]	25 nM
Cc1c(-c2cc3ccc(-c4ccc(C(N)=O)c(F)c4)nc3n2CC2CC2)nn2cc(C(=O)N3CC4CCC3[C@@H]4N)ccc12 (stereo partly drawn) [Example 69, 4-(2-(6-((7R)-7-Amino-2-azabicyclo[2.2.1]heptane-2-carbonyl)-3-methylpyrazolo[1,5-a]pyridin-2-yl)-1-(cyclopropylmethyl)-1H-pyrrolo[2,3-b]pyridin-6-yl)-2-fluorobenzamide]	19 nM
Cc1c(-c2cc3ccc(-c4ccn5c(C)nnc5c4)nc3n2CC2CC2)nn2cc(C(=O)N3CC4CCC3[C@@H]4N)ccc12 (stereo partly drawn) [Example 70, ((7R)-7-Amino-2-azabicyclo[2.2.1]heptan-2-yl)(2-(1-(cyclopropylmethyl)-6-(3-methyl-[1,2,4]triazolo[4,3-a]pyridin-7-yl)-1H-pyrrolo[2,3-b]pyridin-2-yl)-3-methylpyrazolo[1,5-a]pyridin-6-yl)methanone]	15 nM
COc1cc(-c2ccc3cc(-c4nn5cc(C(=O)N6CC7CCC6[C@@H]7N)ccc5c4C)n(CC4CC4)c3n2)c(F)cn1 (stereo partly drawn) [Example 72, ((7R)-7-Amino-2-azabicyclo[2.2.1]heptan-2-yl)(2-(1-(cyclopropylmethyl)-6-(5-fluoro-2-methoxypyridin-4-yl)-1H-pyrrolo[2,3-b]pyridin-2-yl)-3-methylpyrazolo[1,5-a]pyridin-6-yl)methanone]	67 nM
Cc1c(-c2cc3ccc(-c4ccc(OC(F)F)c(F)c4)nc3n2CC2CC2)nn2cc(C(=O)N3CC4CCC3[C@@H]4N)ccc12 (stereo partly drawn) [Example 73, ((7R)-7-Amino-2-azabicyclo[2.2.1]heptan-2-yl)(2-(1-(cyclopropylmethyl)-6-(4-(difluoromethoxy)-3-fluorophenyl)-1H-pyrrolo[2,3-b]pyridin-2-yl)-3-methylpyrazolo[1,5-a]pyridin-6-yl)methanone]	605 nM

Second part, the compound after the results:

IC50	SMILES
227 nM	Cc1c(-c2cc3cccnc3n2CC2CC2)nn2cc(C(=O)N3CC4CCC3[C@@H]4N)ccc12 (stereo partly drawn) [Example 63, ((7R)-7-Amino-2-azabicyclo[2.2.1]heptan-2-yl)(2-(1-(cyclopropylmethyl)-1H-pyrrolo[2,3-b]pyridin-2-yl)-3-methylpyrazolo[1,5-a]pyridin-6-yl)methanone]
59 nM	Cc1ccc2cc(-c3nn4cc(C(=O)N5CC6CCC5[C@@H]6N)ccc4c3C)n(CC3CC3)c2n1 (stereo partly drawn) [Example 66, ((7R)-7-Amino-2-azabicyclo[2.2.1]heptan-2-yl)(2-(1-(cyclopropylmethyl)-6-methyl-1H-pyrrolo[2,3-b]pyridin-2-yl)-3-methylpyrazolo[1,5-a]pyridin-6-yl)methanone]
23 nM	Cc1c(-c2cc3ccc(-c4ccc(O)c(F)c4)nc3n2CC2CC2)nn2cc(C(=O)N3CC4CCC3[C@@H]4N)ccc12 (stereo partly drawn) [Example 67, ((7R)-7-Amino-2-azabicyclo[2.2.1]heptan-2-yl)(2-(1-(cyclopropylmethyl)-6-(3-fluoro-4-hydroxyphenyl)-1H-pyrrolo[2,3-b]pyridin-2-yl)-3-methylpyrazolo[1,5-a]pyridin-6-yl)methanone]
26 nM	Cc1c(-c2cc3ccc(-c4cccc(O)c4F)nc3n2CC2CC2)nn2cc(C(=O)N3CC4CCC3[C@@H]4N)ccc12 (stereo partly drawn) [Example 68, ((7R)-7-Amino-2-azabicyclo[2.2.1]heptan-2-yl)(2-(1-(cyclopropylmethyl)-6-(2-fluoro-3-hydroxyphenyl)-1H-pyrrolo[2,3-b]pyridin-2-yl)-3-methylpyrazolo[1,5-a]pyridin-6-yl)methanone]
22 nM	Cc1c(-c2cc3ccc(C4CC4)nc3n2CC2CC2)nn2cc(C(=O)N3CC4CCC3[C@@H]4N)ccc12 (stereo partly drawn) [Example 71, ((7R)-7-Amino-2-azabicyclo[2.2.1]heptan-2-yl)(2-(6-cyclopropyl-1-(cyclopropylmethyl)-1H-pyrrolo[2,3-b]pyridin-2-yl)-3-methylpyrazolo[1,5-a]pyridin-6-yl)methanone]
425 nM	Cc1c(-c2cc3ccc(-c4cc(F)c(O)c(F)c4)nc3n2CC2CC2)nn2cc(C(=O)N3CC4CCC3[C@@H]4N)ccc12 (stereo partly drawn) [Example 74, ((7R)-7-Amino-2-azabicyclo[2.2.1]heptan-2-yl)(2-(1-(cyclopropylmethyl)-6-(3,5-difluoro-4-hydroxyphenyl)-1H-pyrrolo[2,3-b]pyridin-2-yl)-3-methylpyrazolo[1,5-a]pyridin-6-yl)methanone]
166 nM	Cc1c(-c2cc3ccc(-c4ccc(F)c(O)c4)nc3n2CC2CC2)nn2cc(C(=O)N3CC4CCC3[C@@H]4N)ccc12 (stereo partly drawn) [Example 75, ((7R)-7-Amino-2-azabicyclo[2.2.1]heptan-2-yl)(2-(1-(cyclopropylmethyl)-6-(4-fluoro-3-hydroxyphenyl)-1H-pyrrolo[2,3-b]pyridin-2-yl)-3-methylpyrazolo[1,5-a]pyridin-6-yl)methanone]
96 nM	COC1CCN(c2ccc3cc(-c4nn5cc(C(=O)N6CC7CCC6[C@@H]7N)ccc5c4C)n(CC4CC4)c3n2)CC1 (stereo partly drawn) [Example 76, ((7R)-7-Amino-2-azabicyclo[2.2.1]heptan-2-yl)(2-(1-(cyclopropylmethyl)-6-(4-methoxypiperidin-1-yl)-1H-pyrrolo[2,3-b]pyridin-2-yl)-3-methylpyrazolo[1,5-a]pyridin-6-yl)methanone]
77 nM	Cc1c(-c2cc3ccc(N4CCC(O)CC4)nc3n2CC2CC2)nn2cc(C(=O)N3CC4CCC3[C@@H]4N)ccc12 (stereo partly drawn) [Example 77, ((7R)-7-Amino-2-azabicyclo[2.2.1]heptan-2-yl)(2-(1-(cyclopropylmethyl)-6-(4-hydroxypiperidin-1-yl)-1H-pyrrolo[2,3-b]pyridin-2-yl)-3-methylpyrazolo[1,5-a]pyridin-6-yl)methanone]
143 nM	Cc1c(-c2cc3ccc(N4CCC[C@@H](O)C4)nc3n2CC2CC2)nn2cc(C(=O)N3CC4CCC3[C@@H]4N)ccc12 (stereo partly drawn) [Example 78, ((7R)-7-Amino-2-azabicyclo[2.2.1]heptan-2-yl)(2-(1-(cyclopropylmethyl)-6-((R)-3-hydroxypiperidin-1-yl)-1H-pyrrolo[2,3-b]pyridin-2-yl)-3-methylpyrazolo[1,5-a]pyridin-6-yl)methanone]
